Results on 27 compounds are retold here after patent US8030354B2, “Substituted biphenyl GPR40 modulators” (Amgen Inc., priority 2007, dated 2011).

Molecules are shown by their SMILES.

Experiment [1] addresses T1, GPR40 (Homo sapiens, UniProt O14842). Briefly: Cell-based aequorin assay (CHO cells stably expressing GPR40 and aequorin). Set-up: expressed in transfected cells; host or cells: CHO cells stably transfected with GPR40 and aequorin. The note with it: activation of human GPR40, CHO cells, 0.01% HSA. The essentials: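 CHO cells stably co-expressing GPR40 and aequorin, loaded with coelenterazine (1 ug/mL, 2 h, room temperature) in H/HBSS with 20 mM Hepes and 0.01% fatty acid-free HSA. Serially diluted compounds added; luminescence recorded over 20 s. EC50 from dose-response of maximum relative light units.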

Experiment [2] deals with T1, GPR40. Briefly: Inositol phosphate accumulation assay (A9_GPR40 cells). Format: cell-based. Set-up: expressed in transfected cells; host or cells: CHO cells stably transfected with GPR40 and aequorin. The note with it: inositol phosphate assay, A9_GPR40 cells, 1 hour; read-out: IP3 EC50. The method in brief:
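[^3H] inositol phosphate accumulation was measured by SPA after 1 h compound exposure at 37° C in HBSS/10 mM LiCl containing HSA, ending with a 20 mM formic acid quench. The GPR40-transfected A9 cells had first been labelled overnight (16 h) with 1 μCi/mL ^3H-inositol.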

T1 sequence (O14842 whole entry): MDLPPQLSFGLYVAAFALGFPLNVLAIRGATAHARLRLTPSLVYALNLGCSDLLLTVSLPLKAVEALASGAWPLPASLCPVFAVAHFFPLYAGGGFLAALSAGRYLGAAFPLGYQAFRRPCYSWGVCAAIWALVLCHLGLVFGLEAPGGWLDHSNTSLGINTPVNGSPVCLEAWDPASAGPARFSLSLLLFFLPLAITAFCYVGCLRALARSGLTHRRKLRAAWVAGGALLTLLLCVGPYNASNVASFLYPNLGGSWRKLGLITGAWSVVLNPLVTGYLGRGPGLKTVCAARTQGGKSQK

For `CCC(CC(=O)O)c1cccc(OCc2ccc(-c3cc(OC)ccc3F)c(C(C)C(C)(C)C)c2)c1F` (single isomer, unassigned) [Example 77.5], the values for the EC50 in experiment [1] and in experiment [2] were 100 to 1000 nM and less than 10 nM, respectively.
Turning to `CCC(CC(=O)O)c1cccc(OCc2cc(C3CCCC3(C)C)c(-c3cc(OC)ccc3F)cc2F)c1F` (single isomer, unassigned) [Example 77.6], the EC50 (in general, the concentration that produces a half-maximal response) in experiment [1] is 100 to 1000 nM; in experiment [2], less than 10 nM.
In the case of `CC[C@H](CC(=O)O)c1cccc(OCc2ccc(-c3cc(C(F)F)ccc3F)c(C3=CCCC3(C)C)c2)c1F` (single isomer, unassigned) [Example 77.7, (3R)-3-(3-(((5′-(Difluoromethyl)-2-(5,5-dimethyl-1-cyclopenten-1-yl)-2′-fluoro-1,1′-biphenyl-4-yl)methyl)oxy)-2-fluorophenyl)pentanoic acid or (3S)-3-(3-(((5′-(difluoromethyl)-2-(5,5-dimethyl-1-cyclopenten-1-yl)-2′-fluoro-1,1′-biphenyl-4-yl)methyl)oxy)-2-fluorophenyl)pentanoic acid], the EC50 lay within 1000 to 10000 nM in experiment [1] and 100 to 1000 nM in experiment [2].
As to `CCC(CC(=O)O)c1cccc(OCc2ccc(-c3cc(OC)ccc3F)c(C3CCCCC3(C)C)c2)c1F` (single isomer, unassigned) [Example 77.8], the EC50 in experiment [1] is 100 to 1000 nM; in experiment [2], less than 10 nM.
As for `CCC(CC(=O)O)c1cccc(OCc2ccc(-c3cc(OC)ncc3F)c(C3CCCC3(C)C)c2)c1F` (single isomer, unassigned) [Example 77.9], the values for the EC50 in experiment [1] and in experiment [2] were 100 to 1000 nM and less than 10 nM, respectively.
Take `CCC(CC(=O)O)c1cccc(OCc2ccc(-c3cc(OC)ncc3F)c(C(OC)C(C)(C)C)c2)c1F` (single isomer, unassigned) [Example 77.10]: the values for the EC50 in experiment [1] and in experiment [2] were 100 to 1000 nM and less than 10 nM, respectively.
For `CCC(CC(=O)O)c1cccc(OCc2ccc(-c3cc(OC)ncc3F)c(C(O)(C(C)(C)C)C(C)(C)C)c2)c1F` (single isomer, unassigned) [Example 77.11, (3R)-3-(3-(4-(5-Fluoro-2-methoxypyridin-4-yl)-3-(3-hydroxy-2,2,4,4-tetramethylpentan-3-yl)benzyloxy)-2-fluorophenyl)pentanoic acid or (3R)-3-(3-(4-(5-fluoro-2-methoxypyridin-4-yl)-3-(3-hydroxy-2,2,4,4-tetramethylpentan-3-yl)benzyloxy)-2-fluorophenyl)pentanoic acid], the EC50 is 100 to 1000 nM in experiment [1] and less than 10 nM in experiment [2].
As for `CC[C@H](CC(=O)O)c1cccc(OCc2ccc(-c3cc(OC)ccc3F)c([C@H]3CCCC3(C)C)c2)c1` (single isomer, unassigned) [Example 78.4], the EC50 in experiment [1] was 10 to 100 nM; in experiment [2], less than 10 nM.
Regarding `CCC(CC(=O)O)c1cccc(OCc2ccc(-c3cccc(OC)c3)c(C3CCCC3(C)C)c2)c1` (single isomer, unassigned) [Example 78.6], the figures for the EC50 in experiment [1] and in experiment [2] were 10 to 100 nM and less than 10 nM, respectively.
Regarding `CC[C@H](CC(=O)O)c1cccc(OCc2ccc(-c3cc(OC)ccc3F)c(C3CCCCCC3)c2)c1` (single isomer, unassigned) [Example 78.7, (3R)-3-(3-(((2-Cycloheptyl-2′-fluoro-5′-(methyloxy)-1,1′-biphenyl-4-yl)methyl)oxy)phenyl)pentanoic acid or (3S)-3-(3-(((2-cycloheptyl-2′-fluoro-5′-(methyloxy)-1,1′-biphenyl-4-yl)methyl)oxy)phenyl)pentanoic acid], the EC50 in experiment [1] is 100 to 1000 nM; in experiment [2], 10 to 100 nM.
The corresponding values for `CC[C@H](CC(=O)O)c1cccc(OCc2ccc(-c3cccc(OC)c3)c(C3CCCCCC3)c2)c1` (single isomer, unassigned) [Example 78.8, (3R)-3-(3-(((2-Cycloheptyl-3′-(methyloxy)-1,1′-biphenyl-4-yl)methyl)oxy)phenyl)pentanoic acid or (3S)-3-(3-(((2-cycloheptyl-3′-(methyloxy)-1,1′-biphenyl-4-yl)methyl)oxy)phenyl)pentanoic acid] are 100 to 1000 nM and 10 to 100 nM.
Regarding `CC[C@H](CC(=O)O)c1cccc(OCc2ccc(-c3cc(Cl)ccc3F)c(C3=CCCC3(C)C)c2)c1` (single isomer, unassigned) [Example 78.9, (3R)-3-(3-(((5′-Chloro-2-(5,5-dimethyl-cyclopenten-1-yl)-2′-fluoro-1,1′-biphenyl-4-yl)methyl)oxy)phenyl)pentanoic acid or (3S)-3-(3-(((5′-chloro-2-(5,5-dimethyl-1-cyclopenten-1-yl)-2′-fluoro-1,1′-biphenyl-4-yl)methyl)oxy)phenyl)pentanoic acid], the EC50 lay in the range of 100 to 1000 nM in experiment [1] and 10 to 100 nM in experiment [2].
The corresponding values for `CCC(CC(=O)O)c1cccc(OCc2cc(C3CCCC3(C)C)c(-c3cc(OC)ccc3F)cc2F)c1` (single isomer, unassigned) [Example 78.10] are 100 to 1000 nM and less than 10 nM.
On to `CCC(CC(=O)O)c1cccc(OCc2ccc(-c3cc(OC)ccc3F)c(C3CCCCC3(C)C)c2)c1` (single isomer, unassigned) [Example 78.11], for which the EC50 in experiment [1] is 10 to 100 nM; in experiment [2], less than 10 nM.
In the case of `CCC(CC(=O)O)c1cccc(OCc2ccc(-c3cc(OC)ccc3F)c(C(OC)C(C)(C)CC)c2)c1` (single isomer, unassigned) [Example 78.14], the EC50 was 10 to 100 nM in experiment [1] and less than 10 nM in experiment [2].
Take `COc1ccc(F)c(-c2ccc(COc3cccc(C(CC(=O)O)C4CCC4)c3)cc2C2CCCC2(C)C)c1` (single isomer, unassigned) [Example 79.3]: the EC50 in experiment [1] is 100 to 1000 nM; in experiment [2] it was 10 to 100 nM.
On the same counts, the results for `COc1ccc(F)c(-c2ccc(COc3cccc([C@@H](CC(=O)O)C4CCC4)c3)cc2[C@@H]2CCCC2(C)C)c1` (single isomer, unassigned) [Example 79.4] are 10 to 100 nM and less than 10 nM.
With `COc1cccc(-c2ccc(COc3cccc(C(CC(=O)O)C4CCC4)c3)cc2C2CCCC2(C)C)c1` (single isomer, unassigned) [Example 79.6], the EC50 lay within 100 to 1000 nM in experiment [1] and 10 to 100 nM in experiment [2].
On to `COc1ccc(F)c(-c2ccc(COc3cccc(C(CC(=O)O)C4CCC4)c3)cc2C2CCCCCC2)c1` (single isomer, unassigned) [Example 79.7, (3S)-3-(3-(((2-Cycloheptyl-2′-fluoro-5′-(methyloxy)-1,1′-biphenyl-4-yl)methyl)oxy)phenyl)-3-cyclobutylpropanoic acid or (3R)-3-(3-(((2-cycloheptyl-2′-fluoro-5′-(methyloxy)-1,1′-biphenyl-4-yl)methyl)oxy)phenyl)-3-cyclobutylpropanoic acid], for which the EC50 in experiment [1] lay within 100 to 1000 nM; in experiment [2], 10 to 100 nM.
As to `COc1cccc(-c2ccc(COc3cccc(C(CC(=O)O)C4CCC4)c3)cc2C2CCCCCC2)c1` (single isomer, unassigned) [Example 79.8, (3S)-3-(3-(((2-Cycloheptyl-3′-(methyloxy)-1,1′-biphenyl-4-yl)methyl)oxy)phenyl)-3-cyclobutylpropanoic acid or (3R)-3-(3-(((2-cycloheptyl-3′-(methyloxy)-1,1′-biphenyl-4-yl)methyl)oxy)phenyl)-3-cyclobutylpropanoic acid], the EC50 in experiment [1] fell in the range of 100 to 1000 nM; in experiment [2], 10 to 100 nM.
The corresponding values for `CCC[C@H](CC(=O)O)c1cccc(OCc2ccc(-c3cc(OC)ccc3F)c([C@H]3CCCC3(C)C)c2)c1` (single isomer, unassigned) [Example 80.4] are 100 to 1000 nM and less than 10 nM.
Take `CCCC(CC(=O)O)c1cccc(OCc2ccc(-c3cccc(OC)c3)c(C3CCCC3(C)C)c2)c1` (single isomer, unassigned) [Example 80.6]: the results for the EC50 in experiment [1] and in experiment [2] were 100 to 1000 nM and less than 10 nM, respectively.
Consider `CCC(CC(=O)O)c1cccc(NCc2ccc(-c3cc(OC)ccc3F)c(C3=CCCC3(C)C)c2)c1` (single isomer, unassigned) [Example 81, (3R)-3-(3-(((2-(5,5-Dimethyl-1-cyclopenten-1-yl)-2′-fluoro-5′-(methyloxy)-1,1′-biphenyl-4-yl)methyl)amino)phenyl)pentanoic acid or (3S)-3-(3-(((2-(5,5-dimethyl-1-cyclopenten-1-yl)-2′-fluoro-5′-(methyloxy)-1,1′-biphenyl-4-yl)methyl)amino)phenyl)pentanoic acid], for which the results for the EC50 in experiment [1] and in experiment [2] were 100 to 1000 nM and more than 10000 nM, respectively.
`CC[C@H](CC(=O)O)c1cccc(SCc2ccc(-c3cc(OC)ccc3F)c([C@H]3CCCC3(C)C)c2)c1` (single isomer, unassigned) [Example 82]: the EC50 lay in the range of 100 to 1000 nM in experiment [1] and 1000 to 10000 nM in experiment [2].
Regarding `COc1ccc(F)c(-c2cc(F)c(COc3cccc([C@@H](CC(=O)O)C4CC4)c3F)cc2[C@H]2CCCC2(C)C)c1` (single isomer, unassigned) [Example 83.2], the EC50 in experiment [1] is 10 to 100 nM; in experiment [2] it was less than 10 nM.
Take `CC1(C)CCC[C@@H]1c1cc(COc2cccc([C@@H](CC(=O)O)C3CC3)c2F)ccc1-c1cc(C(F)F)ccc1F` (single isomer, unassigned) [Example 83.3]: the EC50 in experiment [1] lay within 100 to 1000 nM; in experiment [2], 10 to 100 nM.
As for `COc1cc(-c2ccc(COc3cccc([C@@H](CC(=O)O)C4CC4)c3F)cc2[C@H]2CCCC2(C)C)c(F)cn1` (single isomer, unassigned) [Example 83.4], the figures for the EC50 in experiment [1] and in experiment [2] were 10 to 100 nM and less than 10 nM, respectively.
